For series [1], the target named is T1, RNA-directed RNA polymerase (Hepacivirus hominis, UniProt O39930). As to the kind of experiment: Inhibition of HCV 1b NS5B RNA polymerase. Further details: species or system Hepatitis C virus subtype 1b.
The target of series [2] is T1, RNA-directed RNA polymerase. The experiment in a line: Inhibition of HCV 1a NS5B RNA polymerase. The arrangement: species or system Hepatitis C virus subtype 1a.
In series [3] the test system is Hepatitis C virus. As to the kind of experiment: Inhibition of HCV 1b replication in presence of 5% fetal calf serum. Type of series: functional, organism-based, Hepatitis C virus subtype 1b.
Series [4] can be described thus: Protein binding in plasma. Type of series: ADME, cell-free. To be noted: read-out: PPB.
A short description of series [5]: Cmax in rat at 5 mg/kg, po. Type of series: ADME, organism-based. The arrangement: dose 5 mg/kg, route oral. To be noted: in vivo.
The test system of series [6] is Hepatitis C virus. The experiment in a line: Inhibition of HCV 1b replication in presence of 40% human serum. Type of series: functional, organism-based, Hepatitis C virus subtype 1b.
The nature of series [7]: Half life in rat at 5 mg/kg, po. Type of series: ADME, organism-based. The arrangement: dose 5 mg/kg, route oral. To be noted: in vivo.
Series [8] is described as follows: Bioavailability in rat at 5 mg/kg, po. To be noted: in vivo. Type of series: ADME, organism-based.
The nature of series [9]: Clearance in rat at 5 mg/kg, po. Format: ADME, organism-based. The arrangement: dose 5 mg/kg, route oral. Conditions: in vivo.
A short description of series [10]: Ratio of drug level in liver to plasma in rat after 8 hrs. Format: ADME, organism-based.

In general, IC50 refers to the concentration that inhibits the measured activity by half. Read a low IC50 as greater potency. A word on the EC50: it is the midpoint of the concentration-response curve. The Cmax is the peak of the concentration-time curve. As usually defined, the half-life is how long it takes for the measured level to halve. By bioavailability is commonly meant the share of a dose that reaches the circulation, judged against a reference dose that is usually intravenous. By CL/F is commonly meant clearance divided by bioavailability, as obtained after extravascular dosing. In general, Kp refers to tissue or fluid exposure divided by exposure in the circulation.

T1 sequence (O39930 whole entry): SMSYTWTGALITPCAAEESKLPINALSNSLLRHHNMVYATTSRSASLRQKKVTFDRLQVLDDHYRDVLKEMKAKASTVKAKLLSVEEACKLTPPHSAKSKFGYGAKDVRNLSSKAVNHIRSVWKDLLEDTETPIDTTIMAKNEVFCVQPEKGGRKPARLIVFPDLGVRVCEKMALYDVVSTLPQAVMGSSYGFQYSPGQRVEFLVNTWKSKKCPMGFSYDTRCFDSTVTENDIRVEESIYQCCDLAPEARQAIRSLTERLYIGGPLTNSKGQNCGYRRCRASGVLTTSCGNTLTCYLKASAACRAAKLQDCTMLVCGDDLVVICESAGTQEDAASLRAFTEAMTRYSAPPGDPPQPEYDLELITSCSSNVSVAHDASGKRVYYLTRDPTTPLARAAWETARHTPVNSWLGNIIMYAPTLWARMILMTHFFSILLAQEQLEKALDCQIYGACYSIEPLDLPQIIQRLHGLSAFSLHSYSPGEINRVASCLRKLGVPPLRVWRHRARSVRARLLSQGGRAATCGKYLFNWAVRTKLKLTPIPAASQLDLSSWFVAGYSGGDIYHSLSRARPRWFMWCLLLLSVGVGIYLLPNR

Regarding `CC(C)CCn1c(=O)c(C2=NS(=O)(=O)c3cc(NC(=O)C(F)(F)F)ccc3N2)c(O)c2cccnc21`, the IC50 amounted to 70 nM in series [1] and 906 nM in series [2].
With `CC(C)CCn1c(=O)c(C2=Nc3ccc(OCC(=O)OC(C)(C)C)cc3S(=O)(=O)N2)c(O)c2cccnc21`, the values for the IC50 in [1] and in series [2] were 850 nM and 5000 nM, respectively.
For `CC(C)CCn1c(=O)c(C2=NS(=O)(=O)c3cc(NS(=O)(=O)C(C)C)ccc3N2)c(O)c2cccnc21`, the EC50 in the series on Hepatitis C virus [3] is 110 nM. Also, the IC50 in [1] turned out to be 3 nM; in series [2], 8 nM.
With `CC(C)CCn1c(=O)c(C2=Nc3ccc(OCC(N)=O)cc3S(=O)(=O)N2)c(O)c2cccnc21`, the results for the EC50 with Hepatitis C virus [3] and with Hepatitis C virus [6] were 78 nM and 2740 nM, respectively. Also, the fraction unbound in series [4] is less than 0.01. Also, in series [5], the peak level (Cmax) was 180 nM. Also, the IC50 in [1] was determined as 16 nM; in series [2], 46 nM. Besides, the half-life in series [7] is 2 h. Also, the bioavailability in series [8] was determined as 35%. Also, in [9], the CL/F is 12.3 mL/min/kg. For the same molecule, in series [10], the Kp at 8 h amounted to 54.
As for `CC(C)CCn1c(=O)c(C2=NS(=O)(=O)c3cc(OCC#N)ccc3N2)c(O)c2cccnc21`, the values for the IC50 in series [1] and in [2] were 25 nM and 141 nM, respectively.
For the molecule `CC(C)CCn1c(=O)c(C2=NS(=O)(=O)c3ccccc3N2)c(O)c2cccnc21`, the values for the IC50 in series [1] and in [2] were 41 nM and 810 nM, respectively.
On to `CC(C)CCn1c(=O)c(C2=NS(=O)(=O)c3cc(OCC(=O)O)ccc3N2)c(O)c2cccnc21`, for which the IC50 in [1] was found to be 57 nM; in series [2], 367 nM.
On to `CC(C)CCn1c(=O)c(C2=Nc3ccc(NCC#N)cc3S(=O)(=O)N2)c(O)c2cccnc21`, for which the IC50 in [1] was 24 nM; in series [2], 120 nM.
For `Cc1ccc2c(c1)S(=O)(=O)NC(c1c(O)c3cccnc3n(Cc3ccccc3)c1=O)=N2`, the IC50 in series [1] stood at 230 nM; in series [2], 25700 nM.
Turning to `COc1cccc2c1N=C(c1c(O)c3cccnc3n(CCC(C)C)c1=O)NS2(=O)=O`, the IC50 in [1] stood at 1170 nM; in series [2], 17600 nM.
`Cc1cccc2c1N=C(c1c(O)c3cccnc3n(Cc3ccccc3)c1=O)NS2(=O)=O`: the IC50 in series [1] stood at 96 nM; in [2], 6700 nM.
For the molecule `CC(C)CCn1c(=O)c(C2=Nc3ccc(N)cc3S(=O)(=O)N2)c(O)c2cccnc21`, the concentration for a half-maximal effect (EC50) in the series on Hepatitis C virus [3] worked out at 480 nM. Also, the IC50 in [1] is 23 nM; in series [2], 310 nM.
On to `CCCOc1ccc2c(c1)S(=O)(=O)NC(c1c(O)c3cccnc3n(CCC(C)C)c1=O)=N2`, for which the IC50 in [1] was 930 nM; in series [2] it was 1620 nM.
`O=c1c(C2=NS(=O)(=O)c3ccc(O)cc3N2)c(O)c2cccnc2n1Cc1ccccc1`: in series [1], the IC50 amounted to 2510 nM.
For `CC(C)CCn1c(=O)c(C2=Nc3ccc(OCCN)cc3S(=O)(=O)N2)c(O)c2cccnc21`, the IC50 is 51 nM in series [1] and 637 nM in series [2].
With `COc1cccc2c1NC(c1c(O)c3cccnc3n(Cc3ccccc3)c1=O)=NS2(=O)=O`, the IC50 came to 2120 nM in series [1] and 18000 nM in series [2].
On to `CCCCS(=O)(=O)Nc1ccc2c(c1)S(=O)(=O)NC(c1c(O)c3cccnc3n(CCC(C)C)c1=O)=N2`, for which the EC50 in the series on Hepatitis C virus [3] was found to be 1000 nM. The IC50 came to 5 nM in series [1] and 22 nM in series [2].
On to `O=c1c(C2=Nc3ccc(Br)cc3S(=O)(=O)N2)c(O)c2cccnc2n1Cc1ccccc1`, for which the IC50 in series [1] was 756 nM; in series [2], 16800 nM.
Take `CC(C)CCn1c(=O)c(C2=NS(=O)(=O)c3cc(O)ccc3N2)c(O)c2cccnc21`: the IC50 came to 42 nM in series [1] and 390 nM in series [2].
In series [1], `COc1ccc2c(c1)N=C(c1c(O)c3cccnc3n(Cc3ccccc3)c1=O)NS2(=O)=O` registered an IC50 of 3900 nM.
As for `CC(C)CCn1c(=O)c(C2=Nc3ccc(NCC(N)=O)cc3S(=O)(=O)N2)c(O)c2cccnc21`, in the series on Hepatitis C virus [3], the EC50 was found to be 450 nM. The IC50 amounted to 34 nM in series [1] and 470 nM in series [2].
For the molecule `O=c1c(C2=NS(=O)(=O)c3cccc(Br)c3N2)c(O)c2cccnc2n1Cc1ccccc1`, the IC50 in [1] is 1170 nM; in [2] it was 6200 nM.
`CC(C)CCn1c(=O)c(C2=NS(=O)(=O)c3cc(OCC(=O)N(C)C)ccc3N2)c(O)c2cccnc21`: the IC50 in series [1] stood at 70 nM; in series [2], 934 nM.
Turning to `CC(C)CCn1c(=O)c(C2=Nc3ccc(NS(=O)(=O)c4ccccc4)cc3S(=O)(=O)N2)c(O)c2cccnc21`, the EC50 in the series with Hepatitis C virus [3] amounted to 1690 nM. Further, the IC50 worked out at 7 nM in [1] and 41 nM in [2].
On to `CNC(=O)COc1ccc2c(c1)S(=O)(=O)NC(c1c(O)c3cccnc3n(CCC(C)C)c1=O)=N2`, for which the IC50 in series [1] was 80 nM; in series [2] it was 180 nM.
Taken in the same sequence, the figures for `O=c1c(C2=NS(=O)(=O)c3cccc(O)c3N2)c(O)c2cccnc2n1Cc1ccccc1` were 54 nM and 8370 nM.
`CC(C)CCn1c(=O)c(C2=Nc3ccc(OCc4ccccc4)cc3S(=O)(=O)N2)c(O)c2cccnc21` returned an IC50 in [1] of 1490 nM.
For the molecule `O=c1c(C2=NS(=O)(=O)c3ccccc3N2)c(O)c2cccnc2n1Cc1ccccc1`, inhibition in [2] was half-maximal at 5800 nM (IC50).
For `CC(C)CCn1c(=O)c(C2=NS(=O)(=O)c3cc(NS(C)(=O)=O)ccc3N2)c(O)c2cccnc21`, the EC50 with Hepatitis C virus [3] was found to be 3 nM; in the series with Hepatitis C virus [6], 1310 nM. Besides, the fraction unbound in [4] is less than 0.01. Moreover, in series [2], the midpoint of inhibition, the IC50, lay at 2 nM.
Turning to `COc1ccc2c(c1)S(=O)(=O)NC(c1c(O)c3cccnc3n(Cc3ccccc3)c1=O)=N2`, the IC50 was determined as 76 nM in series [1] and 8310 nM in [2].
Turning to `COc1ccc2c(c1)S(=O)(=O)N=C(c1c(O)c3cccnc3n(CCC(C)C)c1=O)N2`, the IC50 turned out to be 65 nM in series [1] and 1130 nM in [2].

These data come from ChEMBL document CHEMBL1138030, “Inhibitors of HCV NS5B polymerase: synthesis and structure-activity relationships of N-1-benzyl and N-1-[3-methylbutyl]-4-hydroxy-1,8-naphthyridon-3-yl benzothiadiazine analogs containing substituents on the aromatic ring” (Bioorg Med Chem Lett, 2006).
